According to a compilation of properties of binary mixtures (doi:10.1016/j.molliq.2019.03.034):

Test: xn = mol fraction of the nth substance listed
Details: 100 kPa

C[N+](C)(C)Cc1ccccc1.[Cl-] + O
viscosity [mPa·s]
Details	298.15 K	303.15 K	308.15 K	313.15 K	318.15 K
x1 = 0.0001	0.895	0.806	0.723	0.627	0.541
x1 = 0.0003	0.897	0.808	0.726	0.623	0.537
x1 = 0.0005	0.901	–	0.73	0.638	0.552
